Data taken from US5883243A, “Non-reducing saccharides, their preparations and uses” (Kabushiki Kaisha Hayashibara Seibutsu Kagaku Kenkyujo, priority 1997, dated 1999).

Assays:
[1] = test system: Peptostreptococcus prevotii ATCC 9321; assay: Assimilation test by intestinal microorganism; type: cell-based; details: 0.5 w/v % saccharide in PYF broth, 37° C., 96 hours
[2] = test system: crude glucosyltransferase specimen derived from Streptococcus sobrinus strain (ATCC 27351); assay: Inhibition of insoluble glucan formation by glucosyltransferase from dental caries-inducing microorganism; type: biochemical; details: for Yield of non-adsorbed glucans / Yield of adsorbed glucans: sucrose plus test saccharide (one ml of one w/v % each), pH 6.8, 37° C., 16 hours; for Yield of non-adsorbed glucans: sucrose alone 923; for Yield of adsorbed glucans: sucrose alone 1,160
Description: To a mixture solution consisting of one ml of one w/v % sucrose solution, one ml of one w/v % of a test saccharide solution, and 1.5 ml of 0.1M phosphate buffer (pH 6.8) was added 0.5 ml solution containing a crude glucosyltransferase specimen in a total protein content of 10 mg, and the mixture solution was placed in a small test tube which was then fixed and slanted to give a grade 30 degrees and allowed to react at 37° C. for 16 hours. The reaction mixture was transferred gently to another test tube and mixed with a solution obtained by washing carefully with 4 ml water the remaining substances adhered to the inner walls of the small test tube, and the mixture solution was centrifuged to obtain a precipitate as a non-adsorbed glucan. The amounts of the adsorbed- and non-adsorbed glucans thus obtained were respectively quantified by the anthrone-sulfuric acid method, and the total amount of them was regarded as the amount of the formed insoluble glucans. As a control system, a reaction system using water in place of the test saccharide solution, i.e. a reaction system using sucrose as a saccharide, was provided.

[3] = test system: Eubacterium aerofaciens ATCC 25986; assay: Assimilation test by intestinal microorganism; type: cell-based; details: 0.5 w/v % saccharide in PYF broth, 37° C., 96 hours
[4] = test system: Bacteroides vulgatus JCM 5826; assay: Assimilation test by intestinal microorganism; type: cell-based; details: 0.5 w/v % saccharide in PYF broth, 37° C., 96 hours
[5] = test system: Bifidobacterium infantis JCM 1222; assay: Assimilation test by intestinal microorganism; type: cell-based; details: 0.5 w/v % saccharide in PYF broth, 37° C., 96 hours
[6] = test system: Bifidobacterium bifidum JCM 1255; assay: Assimilation test by intestinal microorganism; type: cell-based; details: 0.5 w/v % saccharide in PYF broth, 37° C., 96 hours
[7] = test system: Bifidobacterium animalis JCM 1190; assay: Assimilation test by intestinal microorganism; type: cell-based; details: 0.5 w/v % saccharide in PYF broth, 37° C., 96 hours
[8] = test system: Lactobacillus fermentum IFO 3959; assay: Assimilation test by intestinal microorganism; type: cell-based; details: 0.5 w/v % saccharide in PYF broth, 37° C., 96 hours
[9] = test system: Streptococcus sobrinus ATCC 27351; assay: Acid formation by dental caries-inducing microorganisms; details: living wet cells, 0.02M saccharide, Stephen buffer pH 7.0, 37° C.; for pH at each fermentation time (min): 0: 0 min; for pH at each fermentation time (min): 5: 5 min; for pH at each fermentation time (min): 15: 15 min; for pH at each fermentation time (min): 30: 30 min; for pH at each fermentation time (min): 60: 60 min; for pH at each fermentation time (min): 90: 90 min
[10] = test system: Bifidobacterium breve JCM 1192; assay: Assimilation test by intestinal microorganism; type: cell-based; details: 0.5 w/v % saccharide in PYF broth, 37° C., 96 hours
[11] = test system: Clostridium butyricum JCM 1391; type: cell-based; details: 0.5 w/v % saccharide in PYF broth, 37° C., 96 hours
[12] = test system: Bifidobacterium adolescentis JCM 1275; assay: Assimilation test by intestinal microorganism; type: cell-based; details: 0.5 w/v % saccharide in PYF broth, 37° C., 96 hours
[13] = test system: Bacteroides distasonis JCM 5825; assay: Assimilation test by intestinal microorganism; type: cell-based; details: 0.5 w/v % saccharide in PYF broth, 37° C., 96 hours
[14] = test system: Clostridium ramosum JCM 1298; assay: Assimilation test by intestinal microorganism; type: cell-based; details: 0.5 w/v % saccharide in PYF broth, 37° C., 96 hours
[15] = test system: Lactobacillus plantarum IFO 3070; assay: Assimilation test by intestinal microorganism; type: cell-based; details: 0.5 w/v % saccharide in PYF broth, 37° C., 96 hours
[16] = Maillard reaction (coloration with glycine); type: physicochemical; details: 10 w/v % saccharide, one w/v % glycine, 50 mM phosphate buffer pH 7.0, 100° C., 90 min; 1-cm cell
[17] = test system: Escherichia coli IFO 3301; assay: Assimilation test by intestinal microorganism; type: cell-based; details: 0.5 w/v % saccharide in PYF broth, 37° C., 96 hours
[18] = test system: Streptococcus faecalis IAM 10065; assay: Assimilation test by intestinal microorganism; type: cell-based; details: 0.5 w/v % saccharide in PYF broth, 37° C., 96 hours
[19] = test system: Bifidobacterium longum JCM 1217; assay: Assimilation test by intestinal microorganism; type: cell-based; details: 0.5 w/v % saccharide in PYF broth, 37° C., 96 hours
[20] = test system: Bacteroides uniformis JCM 5828; assay: Assimilation test by intestinal microorganism; type: cell-based; details: 0.5 w/v % saccharide in PYF broth, 37° C., 96 hours
[21] = test system: Clostridium perfringens JCM 3816; type: cell-based; details: 0.5 w/v % saccharide in PYF broth, 37° C., 96 hours
[22] = test system: Enzyme from small intestinal mucus membrane; details: enzymes of small intestinal mucus membranes
[23] = test system: bifid bacteria; assay: Assimilation test by intestinal microorganism, overall judgement; type: cell-based; details: results of Tables 4 and 5
Description: To evaluate the growth rate of and to judge the assimilability by the microorganisms, the resultant broth was diluted 5-fold, and the turbidity of the dilution was measured at a wavelength of 750 nm in a 1-cm light-path cell. […] The criteria were in Table 3, and the results were in Tables 4 and 5: […]

SMILES | Judgement of assimilation (turbidity at a wavelength of 750 nm × 5) [1] | Yield of non-adsorbed glucans [2] | Yield of adsorbed glucans [2] | Judgement of assimilation (turbidity at a wavelength of 750 nm × 5) [3] | Judgement of assimilation (turbidity at a wavelength of 750 nm × 5) [4] | Judgement of assimilation (turbidity at a wavelength of 750 nm × 5) [5] | Judgement of assimilation (turbidity at a wavelength of 750 nm × 5) [6] | Judgement of assimilation (turbidity at a wavelength of 750 nm × 5) [7] | Judgement of assimilation (turbidity at a wavelength of 750 nm × 5) [8] | pH at each fermentation time (min): 0 [9] | pH at each fermentation time (min): 5 [9] | pH at each fermentation time (min): 15 [9] | pH at each fermentation time (min): 30 [9] | pH at each fermentation time (min): 60 [9] | pH at each fermentation time (min): 90 [9] | Judgement of assimilation (turbidity at a wavelength of 750 nm × 5) [10] | Judgement of assimilation (turbidity at a wavelength of 750 nm × 5) [11] | Judgement of assimilation (turbidity at a wavelength of 750 nm × 5) [12] | Judgement of assimilation (turbidity at a wavelength of 750 nm × 5) [13] | Judgement of assimilation (turbidity at a wavelength of 750 nm × 5) [14] | other results
OC[C@H]1O[C@H](O[C@H]2O[C@H](CO)[C@@H](O)[C@H](O)[C@H]2O)[C@H](O)[C@@H](O)[C@@H]1O [Trehalose, trehalose, reference compound] | + (0.15 or higher but less than 0.2) | 1,130 μg/ml | 772 µg/mL | - (Less than 0.1) | + (0.15 or higher but less than 0.2) | - (Less than 0.1) | + (0.15 or higher but less than 0.2) | + (0.15 or higher but less than 0.2) | + (0.15 or higher but less than 0.2) | 7.0 | 6.7 | 5.3 | 4.7 | 4.3 | 4.2 | - (Less than 0.1) | +++ (0.3 or higher) | + (0.15 or higher but less than 0.2) | ++ (0.2 or higher but less than 0.3) | + (0.15 or higher but less than 0.2) | Inhibitory percentage (%) on insoluble glucans' formation ([2]; sucrose plus test saccharide, versus sucrose alone): 8.7%; Judgement of assimilation (turbidity at a wavelength of 750 nm × 5) [15]: ++ (0.2 or higher but less than 0.3); Coloration degree (at a wavelength of 480 nm) [16]: 0.007; Judgement of assimilation (turbidity at a wavelength of 750 nm × 5) [17]: - (Less than 0.1); Judgement of assimilation (turbidity at a wavelength of 750 nm × 5) [18]: + (0.15 or higher but less than 0.2); Judgement of assimilation (turbidity at a wavelength of 750 nm × 5) [19]: ++ (0.2 or higher but less than 0.3); Judgement of assimilation (turbidity at a wavelength of 750 nm × 5) [20]: ++ (0.2 or higher but less than 0.3); Judgement of assimilation (turbidity at a wavelength of 750 nm × 5) [21]: +++ (0.3 or higher)
OC[C@H]1O[C@@](CO)(O[C@H]2O[C@H](CO)[C@@H](O)[C@H](O)[C@H]2O)[C@@H](O)[C@@H]1O [Sucrose, sucrose, reference compound] |  |  |  |  |  |  |  |  |  | 7.0 | 4.3 | 4.1 | 4.0 | 4.0 | 4.0 |  |  |  |  |  | 
OC[C@H]1O[C@H](OC[C@H]2O[C@H](OC[C@H]3O[C@H](O[C@H]4O[C@H](CO)[C@@H](O)[C@H](O)[C@H]4O)[C@H](O)[C@@H](O)[C@@H]3O)[C@H](O)[C@@H](O)[C@@H]2O)[C@H](O)[C@@H](O)[C@@H]1O [α-Isomaltotriosyl α-glucoside, O-α-D-glucopyranosyl-(1→6 )-O-α-D-glucopyranosyl-(1→6)-α-D-glucopyranosyl α-D-glucopyrandside] | ± (0.1 or higher but less than 0.15) | 269 µg/mL | 66 µg/mL | - (Less than 0.1) | - (Less than 0.1) | ++ (0.2 or higher but less than 0.3) | ++ (0.2 or higher but less than 0.3) | +++ (0.3 or higher) | - (Less than 0.1) | 7.0 | 7.0 | 6.9 | 6.9 | 6.9 | 6.9 | +++ (0.3 or higher) | +++ (0.3 or higher) | +++ (0.3 or higher) | - (Less than 0.1) | - (Less than 0.1) | Digestibility, judgement in words [22]: relatively-low in digestibility; Selective assimilability by bifid bacteria, in words [23]: high in the selective assimilability by bifid bacteria; Judgement of assimilation (turbidity at a wavelength of 750 nm × 5) [15]: - (Less than 0.1); Coloration degree (at a wavelength of 480 nm) [16]: 0.019; Judgement of assimilation (turbidity at a wavelength of 750 nm × 5) [17]: - (Less than 0.1); Judgement of assimilation (turbidity at a wavelength of 750 nm × 5) [18]: - (Less than 0.1); Judgement of assimilation (turbidity at a wavelength of 750 nm × 5) [19]: +++ (0.3 or higher); Judgement of assimilation (turbidity at a wavelength of 750 nm × 5) [20]: - (Less than 0.1)
